The test system of data set [1] is LAD2. The experiment in a line: Anti-pseudo allergic activity in human LAD2 cells assessed as inhibition of C48/80-induced beta-hexosaminidase release at 0.1 to 10 uM pretreated for 30 mins followed by C48/80 addition measured after 30 mins. It counts as functional, cell-based. The settings on record: dose 0.1-10 µM, time 1.0 hrs.
Data set [2] concerns LAD2. As to the kind of experiment: Anti-pseudo allergic activity in human LAD2 cells assessed as inhibition of C48/80-induced histamine release at 0.1 to 10 uM pretreated for 30 mins followed by C48/80 addition measured after 30 mins by HPLC-MS analysis. The data set is classed as functional, cell-based. The settings on record: dose 0.1-10 µM.
In data set [3] the test system is LAD2. As to the kind of experiment: Cytotoxicity against human LAD2 cells assessed as reduction in cell viability at 10 uM incubated for 24 hrs by Cell Counting Kit assay. It counts as toxicity, cell-based. The settings on record: lad2, 24 h. For orientation: Tetrazolium assays rely on reduction of a dye to a coloured formazan, in cell work by metabolically active cells.

Data set [4] concerns LAD2. As to the kind of experiment: Anti-pseudo allergic activity in human LAD2 cells assessed as inhibition of C48/80-induced beta-hexosaminidase release. The data set is classed as functional, cell-based.
Data set [5] concerns Mus musculus. The experiment in a line: Anti-pseudo allergic activity against C48/80-induced passive cutaneous anaphylaxis mouse model assessed as increase in local tissue edema vascular permeability at 1 to 10 mg/kg followed by C48/80 administration after 30 mins post-compound administration measured every 5 mins for 30 mins. The data set is classed as functional, organism-based. The settings on record: dose 1-10 mg/kg.

Data set [6] has as its system Mus musculus. As to the kind of experiment: Anti-pseudo allergic activity against C48/80-induced passive cutaneous anaphylaxis mouse model assessed as decrease in degranulation level at 0 to 1 mg/kg followed by C48/80 addition measured after 45 mins by FITC-avidin staining based laser scanning confocal microscopy. The data set is classed as functional, organism-based. The settings on record: dose 0-1 mg/kg.

The subject of data set [7] is Mus musculus. The experiment in a line: Anti-pseudo allergic activity against C48/80-induced passive cutaneous anaphylaxis C57 mouse model assessed as reduction in paw thickness rate at 0 to 1 mg/kg followed by C48/80 intravenously administration after 15 mins by Evans blue method. As to conditions: dose 0-1 mg/kg, route iv. The data set is classed as functional, organism-based.

The subject of data set [8] is Mus musculus. As to the kind of experiment: Anti-pseudo allergic activity against C48/80-induced passive cutaneous anaphylaxis mouse model assessed as reduction in serum histamine level at 1 to 10 mg/kg followed by C48/80 administration intravenously after 30 mins post-compound administration measured every 5 mins for 30 mins by LC/MS/MS analysis. The settings on record: dose 1-10 mg/kg, route iv. It counts as functional, organism-based.

Data set [9] deals with Mus musculus. As to the kind of experiment: Anti-pseudo allergic activity against passive cutaneous anaphylaxis-induced mouse model assessed as systemic symptoms at 1 to 10 mg/kg followed by C48/80 administration after 30 mins post-compound administration measured every 5 mins for 30 mins. It counts as functional, organism-based. The settings on record: dose 1-10 mg/kg.
Data set [10] has as its system LAD2. The experiment in a line: Anti-pseudo allergic activity in human LAD2 cells assessed as decrease in C48/80-induced calcium intracellular mobilization at 10 uM by fluorescence based assay. It counts as functional, cell-based.
In data set [11] the test system is Mus musculus. The experiment in a line: Anti-pseudo allergic activity against passive cutaneous anaphylaxis-induced C57 mouse model assessed as reduction in C48/80-induced extravasation rate at 0 to 1 mg/kg followed by C48/80 intravenously administration after 15 mins by Evans blue method. The data set is classed as functional, organism-based. As to conditions: dose 0-1 mg/kg, route iv.

The subject of data set [12] is HEK293. As to the kind of experiment: Anti-pseudo allergic activity in HEK293 cells assessed as prevention of calcium entry in presence of emodin at 0 to 10 uM. It counts as functional, cell-based. As to conditions: Homo sapiens, dose 0-10 µM.
The subject of data set [13] is HEK293. The experiment in a line: Anti-pseudo allergic activity in HEK293 cells expressing H1R assessed as inhibition of histamine induced calcium release at 0 to 10 uM. It counts as functional, cell-based. The settings on record: Homo sapiens, dose 0-10 µM.
In data set [14] the test system is Mus musculus. The experiment in a line: Anti-pseudo allergic activity against C48/80-induced passive cutaneous anaphylaxis mouse model assessed as body temperature loss at 10 mg/kg followed by C48/80 administration intravenously after 30 mins post-compound administration measured every 5 mins for 30 mins. It counts as functional, organism-based. As to conditions: route iv, time 1.0 hrs.

In data set [15] the target is T1, Mas-related G-protein coupled receptor member X2 (Homo sapiens) (UniProt Q96LB1).
T1 sequence (whole entry): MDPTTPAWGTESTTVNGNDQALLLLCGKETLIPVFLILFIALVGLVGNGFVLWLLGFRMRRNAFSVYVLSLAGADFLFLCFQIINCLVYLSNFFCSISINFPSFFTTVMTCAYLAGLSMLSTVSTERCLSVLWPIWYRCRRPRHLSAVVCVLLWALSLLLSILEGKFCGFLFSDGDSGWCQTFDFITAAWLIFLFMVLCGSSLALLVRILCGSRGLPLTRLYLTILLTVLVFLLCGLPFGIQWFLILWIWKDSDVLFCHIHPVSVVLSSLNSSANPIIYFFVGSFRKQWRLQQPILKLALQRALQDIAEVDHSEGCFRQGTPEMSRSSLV
As to the kind of experiment: Antagonist activity at MRGPRX2 (unknown origin) expressed in HEK293 cells assessed as inhibition of calcium mobilization at upto 10 uM. The data set is classed as functional, cell-based. As to conditions: filed as antagonist. (In general: Calcium assays in cells follow changes in intracellular calcium, usually with a dye or a luminescent sensor.)

Consider 13 compounds from ChEMBL document CHEMBL5137071, “Convenient Diaryl Ureas as Promising Anti-pseudo-allergic Agents” (J Med Chem, 2022).

pIC50: −log10 of the molar value. Calls of active or inactive are those of the source. No cut-off for these calls is given here.

As usually defined, the pIC50 is the IC50 on a negative log10 scale, so that one unit is a factor of ten. For `O=C(Nc1ccc(F)cc1)Nc1ccc(C(F)(F)F)cc1`, the outcome with LAD2 [1] was Active. For the same compound, in the data set with LAD2 [2], the inhibition entry is “Active”. For the same compound, the Activity entry in the data set on LAD2 [3] is recorded as “Non-Toxic”. Moreover, the negative-log IC50 (pIC50) in the data set on LAD2 [4] is 5.79.

On to `O=C(Nc1ccc(Br)cc1)Nc1ccc(C(F)(F)F)cc1Cl`, for which the result with LAD2 [1] was Active. The inhibition result with LAD2 [2] is “Active”. In addition, in the data set with LAD2 [3], the Activity result is listed as “Non-Toxic”. In the data set with LAD2 [4], the pIC50 was 5.60.

For `O=C(Nc1ccc(C(F)(F)F)cc1)Nc1ccc(C(F)(F)F)cc1Cl`, the outcome with LAD2 [1] was Active. For the same compound, the inhibition result in the data set with LAD2 [2] is “Active”. Further, the Activity entry with LAD2 [3] is “Non-Toxic”. Also, in the data set with LAD2 [4], the pIC50 was 6.10.

As for `O=C(Nc1ccc(C(F)(F)F)cc1)Nc1ccc(C(F)(F)F)cc1`, the outcome in the data set with Mus musculus [5], with Mus musculus [6], with Mus musculus [7], in the data set with Mus musculus [8], in the data set on Mus musculus [9] and in the data set on LAD2 [10] was Active. The outcome (in the data set with Mus musculus [11]; in the data set on HEK293 [12]; in the data set with HEK293 [13]; with LAD2 [1]; in the data set with Mus musculus [14]; in data set [15]) was Active. The inhibition result in the data set on LAD2 [2] is “Active”. Besides, the Activity entry in the data set with LAD2 [3] is “Non-Toxic”. Further, the pIC50 in the data set on LAD2 [4] was 6.01.

Consider `O=C(Nc1ccc(F)cc1)Nc1ccc(F)cc1`, for which, in the data set on LAD2 [3], the Activity entry is given as “Non-Toxic”.

Regarding `O=C(Nc1ccc(Cl)c(C(F)(F)F)c1)Nc1ccc(Cl)c(C(F)(F)F)c1`, the result with Mus musculus [5], with Mus musculus [6], in the data set with Mus musculus [7], in the data set with Mus musculus [8], in the data set on Mus musculus [9] and in the data set with LAD2 [10] was Active. For the same compound, the result (with Mus musculus [11]; in the data set with HEK293 [12]; in the data set on HEK293 [13]; with LAD2 [1]; in the data set on Mus musculus [14]; in data set [15]) was Active. Further, in the data set with LAD2 [2], the inhibition entry was “Active”. In addition, in the data set with LAD2 [3], the Activity entry is “Non-Toxic”. For the same compound, in the data set with LAD2 [4], the pIC50 was 6.10.

On to `O=C(Nc1ccc(C(F)(F)F)cc1Cl)Nc1ccc(C(F)(F)F)cc1Cl`, for which the result in the data set on LAD2 [1] was Active. For the same compound, the inhibition result with LAD2 [2] is “Active”. In addition, the Activity result in the data set with LAD2 [3] is “Non-Toxic”. The pIC50 in the data set on LAD2 [4] was 5.67.

As for `O=C(Nc1ccc(F)cc1)Nc1ccc(C(F)(F)F)cc1Cl`, the outcome in the data set on LAD2 [1] was Active. In the data set with LAD2 [2], the inhibition entry is “Active”. Besides, in the data set on LAD2 [3], the Activity result was “Non-Toxic”. The pIC50 with LAD2 [4] was 5.85.

Regarding `O=C(Nc1cccc(C(F)(F)F)c1)Nc1cccc(C(F)(F)F)c1`, the outcome in the data set on LAD2 [1] was Active. The inhibition entry in the data set with LAD2 [2] is “Active”. The Activity result with LAD2 [3] is “Non-Toxic”. In addition, the pIC50 with LAD2 [4] was 5.80.

For the compound `O=C(Nc1ccc(Br)cc1)Nc1ccc(Br)cc1`, in the data set with LAD2 [3], the Activity entry is reported as “Non-Toxic”.

`O=C(Nc1ccc(C(F)(F)F)cc1)Nc1cc(Br)cc(C(F)(F)F)c1`: the result in the data set on Mus musculus [5], in the data set with Mus musculus [6], in the data set on Mus musculus [7], with Mus musculus [8], in the data set with Mus musculus [9] and with LAD2 [10] was Active. Further, the result (in the data set on Mus musculus [11]; in the data set with HEK293 [12]; in the data set with HEK293 [13]; in the data set on LAD2 [1]; in the data set with Mus musculus [14]; in data set [15]) was Active. In the data set with LAD2 [2], the inhibition entry was “Active”. In the data set on LAD2 [3], the Activity result is “Non-Toxic”. For the same compound, the pIC50 in the data set with LAD2 [4] is 6.21.

For `O=C(Nc1ccc(Cl)c(C(F)(F)F)c1)Nc1ccc(C(F)(F)F)cc1Cl`, the result with LAD2 [1] was Active. The inhibition entry in the data set with LAD2 [2] was “Active”. Besides, in the data set with LAD2 [4], the pIC50 is 5.96.

Take `O=C(Nc1ccc(F)cc1)Nc1cc(Br)cc(C(F)(F)F)c1`: in the data set on LAD2 [3], the Activity result was “Non-Toxic”.
